Test results as given in PMC5364125 (EJNMMI Research, 2017).
“And” between values parts separate entries of the source, which are not always exact repeats. Equal entries are not always repeated. Where two headings read alike, the source gives them in different places.

Experiments:
TSPO [1] = conditions: cited from earlier work
[2] = Text: The protocol for investigating radiation dosimetry in human subjects using whole-body imaging was essentially the same as that reported previously.
Whole-body PET/CT scans were obtained using a Discovery 710 PET/CT scanner (GE Healthcare) in 3D mode. LD-CT was used for attenuation correction of the PET emission scan. […] Then, 128-min scans (18 frames, 13 bed positions per frame, overlap of 23 of 47 slices per bed, 15 s/bed × four frames, 30 s/bed × 12 frames, and 60 s/bed × two frames) from the top of the head to mid-thigh were performed. Images were reconstructed using a 3D-ordered subset expectation maximization algorithm (subset, 24; iteration, 2) with a 6.4-mm Gaussian filter.
ROIs were manually placed over […] that could be identified on PET or LD-CT: adrenals, brain, gallbladder, small intestine, stomach, heart wall, kidneys, liver, lungs, pancreas, bone marrow (thoracic and lumbar vertebrae), spleen, testes, thymus, thyroid, and urinary bladder. The decay-uncorrected and decay-corrected TACs of organs were calculated as the percent injected dose (%ID) per milliliter and the %ID per organ. The volume of bone marrow, in which only part of the organ could be measured, was substituted by the volume that was calculated from the mass of red marrow in the adult male phantom (1.12 kg for 73.7 kg of body weight) adjusted by the subject’s body weight and 1.04 g/mL as the specific gravity. The normalized number of disintegrations (MBq-h/MBq administered) for each source organ is equal to the area under the time course of decay-uncorrected curve (%ID/mL) multiplied by the volume of the organ ROI. The area under the time course curve was calculated by summing the area from time zero to the endpoint of the scan and the area from the endpoint of the scan to infinity. The former area was calculated by trapezoidal integration. The latter area was calculated by integration of radioactive decay from the endpoint.
The absorbed doses in 25 target organs of the adult male phantom were estimated from the normalized number of disintegrations of source organs by implementing the Medical Internal Radiation Dose method using OLINDA/EXM (Vanderbilt University). The effective dose was also calculated by OLINDA/EXM using the methodology described in International Commission on Radiological Protection Publication 60 [40].

TSPO [3] = system: TSPO; design: method as in PMID 25616581; conditions: 6-hydroxydopamine-injured striatum; cited from earlier work
TSPO [4] = assay: Dynamic brain PET, V T by two-tissue compartment model; assay type: in vivo, human
Description: (§1) PET scanning was performed using a Discovery PET/computed tomography (CT) 710 scanner (GE Healthcare, Milwaukee, WI) in 3D mode. This scanner has an axial field of view of 15.7 cm, a spatial resolution of 4.5 mm full width at half maximum (FWHM), and a Z-axis resolution of 4.8 mm FWHM. We acquired 47 slices. […] Arterial blood (0.5 mL each) was sampled at 10, 20, 30, 40, 50, 60, 70, 80, 90, 100, 110, 120, 135, 150, and 180 s, as well as at 5, 7, 10, 15, 20, 30, 40, 50, 60, 75, and 90 min. The whole blood and separated plasma were weighed, and radioactivity was measured with a NaI (Tl) well scintillation counter (BeWell Model-QS03 F/B; Molecular Imaging Labo, Suita, Japan). To analyze the labeled metabolites, 1.5 mL additional blood was obtained at 3, 10, 20, 30, 40, and 60 min. After the PET scan, urine was obtained from each subject, and radioactivity was measured.
The dynamic images were post-smoothed with a 4-mm FWHM Gaussian filter. The data were reconstructed in 128 × 128 × 47 voxels, and the voxel size was 2 × 2 × 3.27 mm. Partially overlapping circular regions of interests (ROIs) that were 10 mm in diameter were placed on the frontal, temporal, parietal, occipital, and cerebellar cortices, thalamus, putamen, and head of the caudate nucleus with reference to the co-registered MRI. TACs for these ROIs were calculated as becquerel per milliliter or as standardized uptake value (SUV): (activity/ml tissue)/(injected activity/g body weight). […] The goodness of fit by the two-model analysis was evaluated using AIC.

[5] = HPLC metabolite analysis of plasma and urine; assay type: in vivo, human
Description: as §1

TSPO [6] = system: TSPO; design: method as in PMID 25771904; conditions: herpes encephalitis rat model; cited from earlier work
[7] = estimated from murine distribution data; cited from earlier work
TSPO [8] = conditions: human subjects; cited from earlier work
[9] = two-tissue compartment model, typical subjects n = 4

CCN(CC)C(=O)Cc1c(-c2ccc(OCCF)cc2)nn2c(C)cc(C)nc12 [DPA-714]
relative TSPO binding affinity to (R)-PK11195 (TSPO [1]): 1.3 fold

COc1ccccc1CN(C(C)=O)c1cnccc1Oc1ccccc1 [PBR28]
relative TSPO binding affinity to (R)-PK11195 (TSPO [1]): 2–5 folds

CCCN(CCC)C(=O)Cc1c(-c2ccc(O[11CH3])cc2)nc2c(Cl)cc(Cl)cn12 [[^11C]CB184, N,N-di-n-propyl-2-[2-(4-[^11C]methoxyphenyl)-6,8-dichloroimidazol[1,2-a]pyridine-3-yl]acetamide]
radioactivity voided into urine, of the injected activity ([2]; at 132 ± 0 min, n = 3): 0.3% ± 0 | lungs radioactivity, initial time point ([2]; at 3.3 min, one subject): 25 %ID | lungs uptake ([2]; first frame): 25 % injected activity | Absorbed dose, Adrenals ([2]; healthy male subjects n = 3): 4.6 ± 0.9 μGy/MBq | Absorbed dose, Brain ([2]; healthy male subjects n = 3): 4.0 ± 0.3 μGy/MBq | Absorbed dose, Breasts ([2]; healthy male subjects n = 3): 2.2 ± 0.0 μGy/MBq | Absorbed dose, Gallbladder wall ([2]; healthy male subjects n = 3): 5.4 ± 0.4 μGy/MBq | Absorbed dose, Heart wall ([2]; healthy male subjects n = 3): 12.8 ± 0.5 μGy/MBq | Absorbed dose, Kidneys ([2]; healthy male subjects n = 3): 21.0 ± 0.5 μGy/MBq | Absorbed dose, Liver ([2]; healthy male subjects n = 3): 8.3 ± 0.9 μGy/MBq | Absorbed dose, Lower large intestine wall ([2]; healthy male subjects n = 3): 2.3 ± 0.1 μGy/MBq | Absorbed dose, Lungs ([2]; healthy male subjects n = 3): 16.8 ± 2.7 μGy/MBq | Absorbed dose, Muscle ([2]; healthy male subjects n = 3): 2.2 ± 0.1 μGy/MBq | Absorbed dose, Osteogenic cells ([2]; healthy male subjects n = 3): 3.6 ± 0.1 μGy/MBq | Absorbed dose, Ovaries ([2]; healthy male subjects n = 3): 2.5 ± 0.1 μGy/MBq | Absorbed dose, Pancreas ([2]; healthy male subjects n = 3): 16.5 ± 2.2 μGy/MBq | Absorbed dose, Red marrow ([2]; healthy male subjects n = 3): 3.2 ± 0.1 μGy/MBq | Absorbed dose, Skin ([2]; healthy male subjects n = 3): 1.7 ± 0.1 μGy/MBq | Absorbed dose, Small intestine ([2]; healthy male subjects n = 3): 5.4 ± 0.9 μGy/MBq | Absorbed dose, Spleen ([2]; healthy male subjects n = 3): 16.6 ± 6.6 μGy/MBq | Absorbed dose, Stomach wall ([2]; healthy male subjects n = 3): 4.5 ± 0.9 μGy/MBq | Absorbed dose, Testes ([2]; healthy male subjects n = 3): 3.6 ± 0.7 μGy/MBq | Absorbed dose, Thymus ([2]; healthy male subjects n = 3): 2.1 ± 0.0 μGy/MBq | Absorbed dose, Thyroid ([2]; healthy male subjects n = 3): 12.0 ± 3.9 μGy/MBq | Absorbed dose, Total body ([2]; healthy male subjects n = 3): 2.8 ± 0.0 μGy/MBq | Absorbed dose, Upper large intestine wall ([2]; healthy male subjects n = 3): 2.8 ± 0.1 μGy/MBq | Absorbed dose, Urinary bladder wall ([2]; healthy male subjects n = 3): 2.1 ± 0.1 μGy/MBq | Absorbed dose, Uterus ([2]; healthy male subjects n = 3): 2.5 ± 0.1 μGy/MBq | Effective dose ([2]; healthy male subjects n = 3): 5.9 ± 0.6 μSv/MBq | lungs uptake ([2]; last frame): 4.2 % injected activity | Normalized number of disintegrations, Adrenals ([2]; mean ± SD, n = 3): 1.3E-04 ± 5.7E-05 (9.5E-05 – 2.0E-04) MBq-h/MBq administered | Normalized number of disintegrations, Brain ([2]; mean ± SD, n = 3): 1.6E-02 ± 1.3E-03 (1.5E-02 – 1.7E-02) MBq-h/MBq administered | Normalized number of disintegrations, Gallbladder contents ([2]; mean ± SD, n = 3): 8.6E-04 ± 2.3E-04 (7.1E-04 – 1.1E-03) MBq-h/MBq administered | Normalized number of disintegrations, Heart wall ([2]; mean ± SD, n = 3): 1.3E-02 ± 6.2E-04 (1.3E-02 – 1.4E-02) MBq-h/MBq administered | Normalized number of disintegrations, Kidneys ([2]; mean ± SD, n = 3): 2.2E-02 ± 4.7E-04 (2.2E-02 – 2.2E-02) MBq-h/MBq administered | Normalized number of disintegrations, Liver ([2]; mean ± SD, n = 3): 4.2E-02 ± 5.4E-03 (3.8E-02 – 4.8E-02) MBq-h/MBq administered | Normalized number of disintegrations, Lungs ([2]; mean ± SD, n = 3): 6.2E-02 ± 1.1E-02 (5.1E-02 – 7.2E-02) MBq-h/MBq administered | Normalized number of disintegrations, Pancreas ([2]; mean ± SD, n = 3): 5.2E-03 ± 7.6E-04 (4.5E-03 – 6.0E-03) MBq-h/MBq administered | Normalized number of disintegrations, Red marrow ([2]; mean ± SD, n = 3): 1.0E-02 ± 1.7E-03 (8.8E-03 – 1.2E-02) MBq-h/MBq administered | Normalized number of disintegrations, Remainder ([2]; mean ± SD, n = 3): 2.9E-01 ± 2.0E-02 (2.8E-01 – 3.2E-01) MBq-h/MBq administered | Normalized number of disintegrations, Small intestine ([2]; mean ± SD, n = 3): 1.0E-02 ± 2.9E-03 (6.9E-03 – 1.3E-02) MBq-h/MBq administered | Normalized number of disintegrations, Spleen ([2]; mean ± SD, n = 3): 1.0E-02 ± 4.5E-03 (4.9E-03 – 1.3E-02) MBq-h/MBq administered | Normalized number of disintegrations, Stomach ([2]; mean ± SD, n = 3): 3.2E-03 ± 1.7E-03 (2.1E-03 – 5.2E-03) MBq-h/MBq administered | Normalized number of disintegrations, Testes ([2]; mean ± SD, n = 3): 4.3E-04 ± 1.1E-04 (3.1E-04 – 5.0E-04) MBq-h/MBq administered | Normalized number of disintegrations, Thymus ([2]; mean ± SD, n = 3): 3.8E-05 ± 1.8E-06 (3.7E-05 – 4.1E-05) MBq-h/MBq administered | Normalized number of disintegrations, Thyroid ([2]; mean ± SD, n = 3): 9.4E-04 ± 3.4E-04 (6.3E-04 – 1.3E-03) MBq-h/MBq administered | Normalized number of disintegrations, Urinary bladder contents ([2]; mean ± SD, n = 3): 9.8E-05 ± 3.7E-05 (5.5E-05 – 1.2E-04) MBq-h/MBq administered | time of peak radioactivity in liver ([2]; whole-body PET): 20 min | regional uptake into inflamed areas compared with (R)-[^11C]PK11195 (TSPO [3]): comparable | time of peak radioactivity in all gray matter regions (TSPO [4]; after intravenous injection, typical subjects n = 4): about 5 min | V T values relative to those of (R)-[^11C]PK11195 (TSPO [4]; comparison with ref 15 values): 10 times | V T caudate (TSPO [4]; [9]): 3.2 ± 0.1 mL/cm^3 | V T cerebellum (TSPO [4]; [9]): 4.4 ± 0.2 mL/cm^3 | V T frontal cortex (TSPO [4]; [9]): 4.0 ± 0.2 mL/cm^3 | V T occipital cortex (TSPO [4]; [9]): 4.3 ± 0.2 mL/cm^3 and 4.3 ± 0.5 mL/cm^3 | V T parietal cortex (TSPO [4]; [9]): 3.9 ± 0.3 mL/cm^3 | V T putamen (TSPO [4]; [9]): 4.0 ± 0.2 mL/cm^3 | V T temporal cortex (TSPO [4]; [9]): 3.9 ± 0.4 mL/cm^3 | V T thalamus (TSPO [4]; [9]): 5.1 ± 0.4 mL/cm^3 | Percentage of radioactivity in plasma ([5]; 3 min after intravenous injection of [^11C]CB184, n = 5): 96.1 ± 2.7% | Percentage of radioactivity in plasma ([5]; 10 min after intravenous injection of [^11C]CB184, n = 5): 83.8 ± 8.9% | Percentage of radioactivity in plasma ([5]; 20 min after intravenous injection of [^11C]CB184, n = 5): 61.6 ± 8.0% | Percentage of radioactivity in plasma ([5]; 30 min after intravenous injection of [^11C]CB184, n = 5): 52.9 ± 4.9% | Percentage of radioactivity in plasma ([5]; 40 min after intravenous injection of [^11C]CB184, n = 5): 47.0 ± 5.0% | parent radioligand in voided urine ([5]; HPLC of voided urine): not detected | broad hydrophilic metabolites in urine ([5]; HPLC of voided urine, n = 3): 99.4% ± 0.6 | total injected radioactivity recovered in urine ([5]; approximately 100 min post-injection): 0.3% | radioactivity voided into urine, of the injected activity ([5]; at 111 ± 17 min, n = 8): 0.3% ± 0.0 | regional uptake into inflamed areas compared with (R)-[^11C]PK11195 (TSPO [6]): higher | organ with highest radiation-absorbed dose [7]: highest in the lung

CCN(CC)C(=O)Cc1c(-c2ccc(O[11CH3])cc2)nn2c(C)cc(C)nc12 [[^11C]DPA-713]
V T caudate (TSPO [8]): 3.1 ± 0.6 | V T cerebellum (TSPO [8]): 3.9 ± 0.9 | V T frontal cortex (TSPO [8]): 4.1 ± 0.8 | V T parietal cortex (TSPO [8]): 3.7 ± 0.7 | V T putamen (TSPO [8]): 3.5 ± 0.6 | V T thalamus (TSPO [8]): 4.7 ± 0.9
